Source: patent publication US20230257367A1, “NOVEL THYROID HORMONE BETA RECEPTOR AGONIST” (Chengdu Kanghong Pharmaceutical Co., Ltd., priority 2020, published 2023)

Columns and labels:
TRα = molecular target: T1, TRα (Homo sapiens, UniProt P10827); assay: In vitro TRα cell transfection experiment (GAL4 luciferase reporter, HEK293T); assay type: cell-based
T1 construct: host or cells: HEK293T
T1 sequence (P10827 1-410 isoform P10827-2): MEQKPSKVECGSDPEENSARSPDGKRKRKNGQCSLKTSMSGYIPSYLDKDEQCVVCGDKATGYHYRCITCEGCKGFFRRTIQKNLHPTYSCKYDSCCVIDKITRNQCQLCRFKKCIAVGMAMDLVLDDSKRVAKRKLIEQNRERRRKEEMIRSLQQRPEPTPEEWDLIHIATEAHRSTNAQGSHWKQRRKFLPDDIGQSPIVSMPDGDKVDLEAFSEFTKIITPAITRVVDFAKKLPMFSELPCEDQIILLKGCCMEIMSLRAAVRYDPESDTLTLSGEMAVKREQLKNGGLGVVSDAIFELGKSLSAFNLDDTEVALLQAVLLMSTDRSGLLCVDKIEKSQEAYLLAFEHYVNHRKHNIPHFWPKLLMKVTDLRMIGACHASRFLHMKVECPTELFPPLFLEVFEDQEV
T1 sequence (P19793 227-458 partner limits assumed): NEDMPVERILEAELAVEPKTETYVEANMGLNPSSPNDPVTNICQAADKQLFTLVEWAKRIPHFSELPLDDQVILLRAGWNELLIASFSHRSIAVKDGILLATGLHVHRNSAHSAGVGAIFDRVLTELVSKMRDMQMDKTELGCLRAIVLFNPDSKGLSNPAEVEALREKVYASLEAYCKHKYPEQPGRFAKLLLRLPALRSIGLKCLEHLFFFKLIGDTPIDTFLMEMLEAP

TRβ = molecular target: T2, TRβ (Homo sapiens, UniProt P10828); assay: In vitro TRβ cell transfection experiment (GAL4 luciferase reporter, HEK293T); assay type: cell-based
T2 construct: host or cells: HEK293T
T2 sequence (P10828 217-461 limits assumed): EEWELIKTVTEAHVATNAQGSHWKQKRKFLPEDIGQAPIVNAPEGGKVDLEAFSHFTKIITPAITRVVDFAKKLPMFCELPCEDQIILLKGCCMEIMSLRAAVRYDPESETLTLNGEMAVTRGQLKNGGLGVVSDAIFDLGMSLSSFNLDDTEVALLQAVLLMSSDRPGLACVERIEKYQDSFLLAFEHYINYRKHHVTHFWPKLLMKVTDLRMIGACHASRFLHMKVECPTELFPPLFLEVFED
T2 sequence (P19793 227-458 partner limits assumed): T1 sequence (P19793 227-458 partner limits assumed)

NASH model = assay: In vivo pharmacological experiment: DIO + CCl4 induced NASH model; set-up: species or system C57BL/6J male mice; conditions: oral, once per day
Protocol: In the early stages of this experiment, mice induced by DIO (diet-induced obesity) were fed with a high-fat diet, followed by intraperitoneal injection of CCl4 during high-fat diet feeding to induce the NASH model. In this model, the anti-NASH efficacy of the compound to be tested was evaluated Animal information: C57BL/6J male mice (18 weeks old) were used, comprising 32 DIO mice+8 normal mice, wherein the weight of DIO mice >38 g. [table] [table] Induction with CCl4: A 25% (volume ratio) of CCl4 solution was prepared by placing 1 part CCl4 and 3 parts olive oil in a glass bottle. The solution was mixed well and used right after it was ready Eight mice in the first group were intraperitoneally injected with normal saline solution as normal controls The mice in the 2rd to 5th groups were intraperitoneally injected with 25% CCl4 solution twice a week. 25% (volume ratio) CCl4 was administered by body weight, 0.5 ml/kg. The interval between the injection time of CCl4 and the time of administration on the day should be more than 4 hours Histopathological Analysis All liver samples were dehydrated by a dehydrating instrument (Leica HistoCore Pearl-0348) and then embedded by a paraffin embedding machine (HistoCoreArcadia). The embedded liver sample was then sliced using a Lecia RM2235 machine. NAS Score NAS scores were performed on HE (hematoxylin-eosin) stained slices as the sum of steatosis, balloon degeneration, and lobular inflammation. [table] […] Percentage of Fibrosis All slices stained with Sirius red were scanned by a Leica Aperio AT2 Brightfield scanner, and then a percentage of Sirius red positive staining area was calculated by the HALO AI system to evaluate the percentage area of the Sirius red in the total liver area scanned.

- EC50 (TRα): 0.037 µM
- EC50 (TRβ): 0.009 µM
SMILES: CC(C)c1nc(Oc2c(Cl)cc(-n3ncc(=O)[nH]c3=O)cc2Cl)ncc1O [KH06]
- NAS score (sum of steatosis, ballooning degeneration and lobular inflammation) (NASH model; 1 and 3 mg/kg, compared with the model group, FIG. 2): significant reduction in score
- fibrosis evaluation (percentage of Sirius red positive area) (NASH model; 1 and 3 mg/kg, day 0 to day 27, FIG. 1): reducing the proportion of fibrosis
- fibrosis efficacy compared with MGL3196 at 3 mg/kg (NASH model; KH06 1 mg/kg, FIG. 1): better than that of MGL3196 at a dosage of 3 mg/kg
- NAS score efficacy compared with MGL3196 at 3 mg/kg (NASH model; KH06 1 mg/kg, FIG. 2): same efficacy as MGL3196 at 3 mg/kg
